The MIC is the lowest concentration that inhibits growth of the organism. In general, MBC refers to the smallest concentration meeting the test's criterion for killing.

Structures are written as SMILES. Values after ≈ are worked out from the molar mass of the structure shown.

The test system of one assay is Streptococcus sobrinus. The assay can be described thus: Antibacterial activity against Streptococcus sobrinus 6715 assessed as reduction in bacterial growth incubated for 24 hrs by INT dye based broth dilution method. The format is functional. In general terms: Dilution methods test growth across graded concentrations, often in twofold steps.
Take `C/C(=C\CC/C(C)=C/CC[C@]1(C)CCc2cc(O)cc(C)c2O1)CC/C=C(\C)C(=O)O`: the MIC turned out to be 31.3 µM (≈ 13.4 µg/mL).

Regarding `O=C1C[C@@H](c2ccc(O)cc2)Oc2c1c(O)cc(O)c2[C@H]1C(=O)c2c(O)cc(O)cc2O[C@@H]1c1ccc(O)cc1`, the MIC was found to be 250 µM (≈ 136 µg/mL).

Regarding `C/C(=C\CC/C(C)=C/CC[C@]1(C)CCc2cc(Oc3c(O)cc(C)c4c3CC[C@@](C)(CC/C=C(\C)CC/C=C(\C)CC/C=C(\C)C(=O)O)O4)cc(C)c2O1)CC/C=C(\C)C(=O)O`, the MIC is over 1000 µM.

Consider `COc1ccc([C@@H]2CC(=O)c3c(O)cc(O)c([C@H]4C(=O)c5c(O)cc(O)cc5O[C@@H]4c4ccc(O)cc4)c3O2)cc1O`, for which the MIC turned out to be 500 µM (≈ 286 µg/mL).

`CC(C)=CCC/C(C)=C/Cc1c(O)cc(C(=O)c2ccccc2)cc1O`: the minimal inhibitory concentration (MIC) was 15.6 µM (≈ 5.47 µg/mL).

Turning to `C/C(=C\CC/C(C)=C/CC[C@]1(C)CCc2c(c(C)cc(O)c2-c2c(O)cc(C)c3c2CC[C@@](C)(CC/C=C(\C)CC/C=C(\C)CC/C=C(\C)C(=O)O)O3)O1)CC/C=C(\C)C(=O)O`, the MIC is over 1000 µM.

In the case of `C/C(=C\CC/C(C)=C/CC[C@]1(C)CCc2cc(Oc3c(O)c(C)c(C)c4c3CC[C@@](C)(CC/C=C(\C)CC/C=C(\C)CC/C=C(\C)C(=O)O)O4)cc(C)c2O1)CC/C=C(\C)C(=O)O`, the MIC was over 1000 µM.

For `COc1ccc([C@H]2Oc3c(c(O)cc(O)c3[C@H]3C(=O)c4c(O)cc(O)cc4O[C@@H]3c3ccc(O)cc3)C(=O)[C@@H]2O)cc1O`, the MIC was determined as 250 µM (≈ 147 µg/mL).

`O=C1c2c(O)cc(O)cc2O[C@H](c2ccc(O)cc2)[C@H]1c1c(O)cc(O)c2c1O[C@H](c1ccc(O)cc1)[C@@H](O)C2=O`: the MIC was determined as 250 µM (≈ 140 µg/mL).

As for `O=C1c2c(O)cc(O)cc2O[C@H](c2ccc(O)cc2)[C@H]1c1c(O)cc(O)c2c1O[C@H](c1ccc(O)c(O)c1)[C@@H](O)C2=O`, the minimum inhibitory concentration (MIC) came out at 250 µM (≈ 144 µg/mL).

For the molecule `N=C(NCCCCCCNC(=N)NC(=N)Nc1ccc(Cl)cc1)NC(=N)Nc1ccc(Cl)cc1` [CHLORHEXIDINE], the MIC worked out at 2 µM (≈ 1.01 µg/mL).

Turning to `CC1(C)CC[C@]2(C)CC[C@]3(C)[C@H]4CC=C5[C@@H](CC[C@H](O)C5(C)C)[C@]4(C)CC[C@@]3(C)[C@@H]2C1` [GLUTINOL], the minimum inhibitory concentration (MIC) is over 1000 µM.

Another assay has as its system Porphyromonas gingivalis. As to the kind of experiment: Antibacterial activity against Porphyromonas gingivalis ATCC 33277 assessed as reduction in bacterial growth incubated for 24 hrs by INT dye based broth dilution method. The format is functional.
With `C/C(=C\CC/C(C)=C/CC[C@]1(C)CCc2cc(O)cc(C)c2O1)CC/C=C(\C)C(=O)O`, the MIC was 31.3 µM (≈ 13.4 µg/mL).

As for `O=C1C[C@@H](c2ccc(O)cc2)Oc2c1c(O)cc(O)c2[C@H]1C(=O)c2c(O)cc(O)cc2O[C@@H]1c1ccc(O)cc1`, the MIC was 250 µM (≈ 136 µg/mL).

Turning to `C/C(=C\CC/C(C)=C/CC[C@]1(C)CCc2cc(Oc3c(O)cc(C)c4c3CC[C@@](C)(CC/C=C(\C)CC/C=C(\C)CC/C=C(\C)C(=O)O)O4)cc(C)c2O1)CC/C=C(\C)C(=O)O`, the MIC is over 1000 µM.

`COc1ccc([C@@H]2CC(=O)c3c(O)cc(O)c([C@H]4C(=O)c5c(O)cc(O)cc5O[C@@H]4c4ccc(O)cc4)c3O2)cc1O`: the MIC stood at 125 µM (≈ 71.6 µg/mL).

Regarding `CC(C)=CCC/C(C)=C/Cc1c(O)cc(C(=O)c2ccccc2)cc1O`, the MIC came to 62.5 µM (≈ 21.9 µg/mL).

On to `C/C(=C\CC/C(C)=C/CC[C@]1(C)CCc2c(c(C)cc(O)c2-c2c(O)cc(C)c3c2CC[C@@](C)(CC/C=C(\C)CC/C=C(\C)CC/C=C(\C)C(=O)O)O3)O1)CC/C=C(\C)C(=O)O`, for which the MIC is over 1000 µM.

`C/C(=C\CC/C(C)=C/CC[C@]1(C)CCc2cc(Oc3c(O)c(C)c(C)c4c3CC[C@@](C)(CC/C=C(\C)CC/C=C(\C)CC/C=C(\C)C(=O)O)O4)cc(C)c2O1)CC/C=C(\C)C(=O)O`: the MIC was over 1000 µM.

`COc1ccc([C@H]2Oc3c(c(O)cc(O)c3[C@H]3C(=O)c4c(O)cc(O)cc4O[C@@H]3c3ccc(O)cc3)C(=O)[C@@H]2O)cc1O`: the MIC is over 1000 µM.

As for `O=C1c2c(O)cc(O)cc2O[C@H](c2ccc(O)cc2)[C@H]1c1c(O)cc(O)c2c1O[C@H](c1ccc(O)cc1)[C@@H](O)C2=O`, the MIC was over 1000 µM.

Turning to `O=C1c2c(O)cc(O)cc2O[C@H](c2ccc(O)cc2)[C@H]1c1c(O)cc(O)c2c1O[C@H](c1ccc(O)c(O)c1)[C@@H](O)C2=O`, the MIC was over 1000 µM.

As for `N=C(NCCCCCCNC(=N)NC(=N)Nc1ccc(Cl)cc1)NC(=N)Nc1ccc(Cl)cc1` [CHLORHEXIDINE], the MIC stood at 15.6 µM (≈ 7.89 µg/mL).

As to `CC1(C)CC[C@]2(C)CC[C@]3(C)[C@H]4CC=C5[C@@H](CC[C@H](O)C5(C)C)[C@]4(C)CC[C@@]3(C)[C@@H]2C1` [GLUTINOL], the MIC was over 1000 µM.

The test system of another assay is Streptococcus sobrinus. As to the kind of experiment: Bactericidal activity against Streptococcus sobrinus 6715 assessed as reduction in bacterial growth incubated for 48 hrs by INT dye based broth dilution method. It is filed as functional.
As for `C/C(=C\CC/C(C)=C/CC[C@]1(C)CCc2cc(O)cc(C)c2O1)CC/C=C(\C)C(=O)O`, the MBC stood at 62.5 µM (≈ 26.7 µg/mL).

`O=C1C[C@@H](c2ccc(O)cc2)Oc2c1c(O)cc(O)c2[C@H]1C(=O)c2c(O)cc(O)cc2O[C@@H]1c1ccc(O)cc1`: the MBC is 500 µM (≈ 271 µg/mL).

Regarding `C/C(=C\CC/C(C)=C/CC[C@]1(C)CCc2cc(Oc3c(O)cc(C)c4c3CC[C@@](C)(CC/C=C(\C)CC/C=C(\C)CC/C=C(\C)C(=O)O)O4)cc(C)c2O1)CC/C=C(\C)C(=O)O`, the MBC is over 1000 µM.

In the case of `COc1ccc([C@@H]2CC(=O)c3c(O)cc(O)c([C@H]4C(=O)c5c(O)cc(O)cc5O[C@@H]4c4ccc(O)cc4)c3O2)cc1O`, the MBC was over 1000 µM.

Turning to `CC(C)=CCC/C(C)=C/Cc1c(O)cc(C(=O)c2ccccc2)cc1O`, the MBC was 31.3 µM (≈ 11 µg/mL).

For `C/C(=C\CC/C(C)=C/CC[C@]1(C)CCc2c(c(C)cc(O)c2-c2c(O)cc(C)c3c2CC[C@@](C)(CC/C=C(\C)CC/C=C(\C)CC/C=C(\C)C(=O)O)O3)O1)CC/C=C(\C)C(=O)O`, the MBC is over 1000 µM.

In the case of `C/C(=C\CC/C(C)=C/CC[C@]1(C)CCc2cc(Oc3c(O)c(C)c(C)c4c3CC[C@@](C)(CC/C=C(\C)CC/C=C(\C)CC/C=C(\C)C(=O)O)O4)cc(C)c2O1)CC/C=C(\C)C(=O)O`, the MBC was over 1000 µM.

Consider `COc1ccc([C@H]2Oc3c(c(O)cc(O)c3[C@H]3C(=O)c4c(O)cc(O)cc4O[C@@H]3c3ccc(O)cc3)C(=O)[C@@H]2O)cc1O`, for which the MBC was over 1000 µM.

In the case of `O=C1c2c(O)cc(O)cc2O[C@H](c2ccc(O)cc2)[C@H]1c1c(O)cc(O)c2c1O[C@H](c1ccc(O)cc1)[C@@H](O)C2=O`, the MBC was 1000 µM (≈ 558 µg/mL).

For `O=C1c2c(O)cc(O)cc2O[C@H](c2ccc(O)cc2)[C@H]1c1c(O)cc(O)c2c1O[C@H](c1ccc(O)c(O)c1)[C@@H](O)C2=O`, the MBC was found to be 1000 µM (≈ 574 µg/mL).

As for `N=C(NCCCCCCNC(=N)NC(=N)Nc1ccc(Cl)cc1)NC(=N)Nc1ccc(Cl)cc1` [CHLORHEXIDINE], the MBC was determined as 2 µM (≈ 1.01 µg/mL).

`CC1(C)CC[C@]2(C)CC[C@]3(C)[C@H]4CC=C5[C@@H](CC[C@H](O)C5(C)C)[C@]4(C)CC[C@@]3(C)[C@@H]2C1` [GLUTINOL]: the MBC was over 1000 µM.

Another assay relates to Porphyromonas gingivalis. As to the kind of experiment: Bactericidal activity against Porphyromonas gingivalis ATCC 33277 assessed as reduction in bacterial growth incubated for 48 hrs by INT dye based broth dilution method. The format is functional.
With `C/C(=C\CC/C(C)=C/CC[C@]1(C)CCc2cc(O)cc(C)c2O1)CC/C=C(\C)C(=O)O`, the MBC was 250 µM (≈ 107 µg/mL).

Regarding `O=C1C[C@@H](c2ccc(O)cc2)Oc2c1c(O)cc(O)c2[C@H]1C(=O)c2c(O)cc(O)cc2O[C@@H]1c1ccc(O)cc1`, the MBC is over 1000 µM.

With `C/C(=C\CC/C(C)=C/CC[C@]1(C)CCc2cc(Oc3c(O)cc(C)c4c3CC[C@@](C)(CC/C=C(\C)CC/C=C(\C)CC/C=C(\C)C(=O)O)O4)cc(C)c2O1)CC/C=C(\C)C(=O)O`, the MBC is over 1000 µM.

As to `COc1ccc([C@@H]2CC(=O)c3c(O)cc(O)c([C@H]4C(=O)c5c(O)cc(O)cc5O[C@@H]4c4ccc(O)cc4)c3O2)cc1O`, the MBC was over 1000 µM.

For `CC(C)=CCC/C(C)=C/Cc1c(O)cc(C(=O)c2ccccc2)cc1O`, the minimal bactericidal concentration (MBC) is over 1000 µM.

Take `C/C(=C\CC/C(C)=C/CC[C@]1(C)CCc2c(c(C)cc(O)c2-c2c(O)cc(C)c3c2CC[C@@](C)(CC/C=C(\C)CC/C=C(\C)CC/C=C(\C)C(=O)O)O3)O1)CC/C=C(\C)C(=O)O`: the MBC is over 1000 µM.

Regarding `C/C(=C\CC/C(C)=C/CC[C@]1(C)CCc2cc(Oc3c(O)c(C)c(C)c4c3CC[C@@](C)(CC/C=C(\C)CC/C=C(\C)CC/C=C(\C)C(=O)O)O4)cc(C)c2O1)CC/C=C(\C)C(=O)O`, the minimum bactericidal concentration (MBC) was over 1000 µM.

On to `COc1ccc([C@H]2Oc3c(c(O)cc(O)c3[C@H]3C(=O)c4c(O)cc(O)cc4O[C@@H]3c3ccc(O)cc3)C(=O)[C@@H]2O)cc1O`, for which the MBC is over 1000 µM.

On to `O=C1c2c(O)cc(O)cc2O[C@H](c2ccc(O)cc2)[C@H]1c1c(O)cc(O)c2c1O[C@H](c1ccc(O)cc1)[C@@H](O)C2=O`, for which the MBC was over 1000 µM.

Turning to `O=C1c2c(O)cc(O)cc2O[C@H](c2ccc(O)cc2)[C@H]1c1c(O)cc(O)c2c1O[C@H](c1ccc(O)c(O)c1)[C@@H](O)C2=O`, the MBC is over 1000 µM.

Regarding `N=C(NCCCCCCNC(=N)NC(=N)Nc1ccc(Cl)cc1)NC(=N)Nc1ccc(Cl)cc1` [CHLORHEXIDINE], the MBC stood at 31.3 µM (≈ 15.8 µg/mL).

As to `CC1(C)CC[C@]2(C)CC[C@]3(C)[C@H]4CC=C5[C@@H](CC[C@H](O)C5(C)C)[C@]4(C)CC[C@@]3(C)[C@@H]2C1` [GLUTINOL], the MBC was over 1000 µM.
